From patent US20240383954A1, “PEPTIDE INHIBITORS OF INTERLEUKIN-23 RECEPTOR AND THEIR USE TO TREAT INFLAMMATORY DISEASES” (Janssen Biotech, Inc., priority 2020, published 2024)
Read-outs that look alike come from different tables or passages of the source. Starred links: 1 amine or outer side, 2 acyl side, 3 side chain; linkers in the order of their positions; H or OH if unused. Positions of bridges follow the written chain, without caps; N, C: chain ends. Non-standard residues stand in square brackets, D forms with d. Residues, ends and D or L forms follow the SMILES beside them. *: point of attachment. Trp(7-Ph) = N[C@@H](Cc1c[nH]c2c(-c3ccccc3)cccc12)C(=O)O; Trp(7-Me) = Cc1cccc2c(C[C@H](N)C(=O)O)c[nH]c12; Abu(4-yl) = O=C([C@H](CC[*:3])N[*:1])[*:2]; Phe(4-NH2) = Nc1ccc(C[C@H](N)C(=O)O)cc1; 2Nal = N[C@@H](Cc1ccc2ccccc2c1)C(=O)O; AEF = NCCOc1ccc(C[C@H](N)C(=O)O)cc1; αMeF = C[C@](N)(Cc1ccccc1)C(=O)O; Cit = NC(=O)NCCC[C@H](N)C(=O)O; Pen = CC(C)(S)[C@H](N)C(=O)O; αMeK = C[C@](N)(CCCCN)C(=O)O; Ac5c = NC1(C(=O)O)CCCC1; Thp = NC1(C(=O)O)CCOCC1; Ac3c = NC1(C(=O)O)CC1; Aib = CC(C)(N)C(=O)O; NHBn = c1ccc(CN*)cc1

Assays:
IL-23R [1] = target: T1, IL-23R (Homo sapiens, UniProt Q5VWK5); assay: cell-based
T1 sequence (Q5VWK5 24-629): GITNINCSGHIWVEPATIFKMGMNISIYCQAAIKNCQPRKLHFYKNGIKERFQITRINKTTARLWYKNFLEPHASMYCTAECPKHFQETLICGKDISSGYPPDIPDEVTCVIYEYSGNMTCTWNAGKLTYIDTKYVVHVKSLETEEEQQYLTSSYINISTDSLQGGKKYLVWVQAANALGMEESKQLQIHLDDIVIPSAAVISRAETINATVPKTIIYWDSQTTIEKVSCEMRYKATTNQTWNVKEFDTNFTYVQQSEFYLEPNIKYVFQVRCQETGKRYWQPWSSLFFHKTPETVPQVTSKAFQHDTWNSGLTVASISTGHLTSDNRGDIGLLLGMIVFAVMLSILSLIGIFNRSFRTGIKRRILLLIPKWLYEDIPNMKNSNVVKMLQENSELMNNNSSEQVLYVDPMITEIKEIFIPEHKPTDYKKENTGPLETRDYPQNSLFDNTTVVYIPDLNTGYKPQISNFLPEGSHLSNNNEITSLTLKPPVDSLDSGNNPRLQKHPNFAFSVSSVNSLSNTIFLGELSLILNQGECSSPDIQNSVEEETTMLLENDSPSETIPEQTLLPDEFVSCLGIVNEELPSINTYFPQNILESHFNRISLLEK
Source text: DB Cells IL23R pSTAT3 Cell Assay
Changes in phospho-STAT3 levels in the cell lysates were detected using the Cisbio HTRF pSTAT3 Cellular Assay Kit, according to manufacturer's Two Plate Assay protocol.

IL-23R [2] = target: T1, IL-23R; assay: cell-based; details: PBMC pSTAT3 IC50 (nM), PBMCs from healthy donors, IL-23 5 ng/mL, 30 minutes, phosphorylated STAT3

Row | Compound | IC50 (IL-23R [1]) [nM] | IC50 (IL-23R [2]) [nM]
1 | CC(=O)NCCCC[C@@H]1NC(=O)[C@H](Cc2c[nH]c3c(-c4ccccc4)cccc23)NC(=O)[C@H]([C@@H](C)O)NC(=O)[C@H](CCC(N)=O)NC(=O)[C@@H](NC(C)=O)CCSC[C@@H](C(=O)N[C@@H](Cc2ccc(OCCN)cc2)C(=O)N[C@@H](Cc2ccc3ccccc3c2)C(=O)N[C@@](C)(CCCCN)C(=O)N[C@@H](CCCCNC(C)=O)C(=O)N[C@@H](CC(N)=O)C(=O)N[C@@](C)(Cc2ccccc2)C(N)=O)NC1=O [Compound 67, Ac-[Abu]-Q-T-[W(7-Ph)]-[Lys(Ac)]-[Cys]-Phe[4-(2-aminoethoxy)]-[2-Nal]-[a-MeLys]-[Lys(Ac)]-N-[a-MePhe]-NH2] (Ac-[Abu(4-yl)]QT[Trp(7-Ph)]K(Ac)C[AEF][2Nal][αMeK]K(Ac)N[αMeF]-NH2; thioether 1-6) | 5.52 | 
2 | CC(=O)NCCCC[C@H](NC(=O)[C@](C)(CCCCN)NC(=O)[C@H](Cc1ccc2ccccc2c1)NC(=O)[C@H](Cc1ccc(OCCN)cc1)NC(=O)[C@H]1NC(=O)[C@H](CCCNC(N)=O)NC(=O)[C@H](Cc2c[nH]c3c(C)cccc23)NC(=O)[C@H]([C@@H](C)O)NC(=O)[C@H](CC(N)=O)NC(=O)[C@@H](NC(C)=O)C(C)(C)SSC1(C)C)C(=O)N[C@@H](CC(N)=O)C(=O)NC(C)(C)C(=O)N[C@H](Cc1ccc(O)cc1)C(N)=O [Compound 202, Ac-[Pen]-N-T-[W(7-Me)]-[Cit]-[Pen]-Phe[4-(2-aminoethoxy)]-[2-Nal]-[a-MeLys]-[Lys(Ac)]-N-[Aib]-[(D)Tyr]-NH2] (Ac-[Pen]NT[Trp(7-Me)][Cit][Pen][AEF][2Nal][αMeK]K(Ac)N[Aib][dY]-NH2; disulfide 1-6) | 0.637 | 
3 | CC(=O)N[C@H](CCCNC(=N)N)C(=O)N[C@@H]1C(=O)N[C@@H](CCC(N)=O)C(=O)N[C@@H]([C@@H](C)O)C(=O)N[C@@H](Cc2c[nH]c3ccccc23)C(=O)N[C@@H](CCC(N)=O)C(=O)N[C@H](C(=O)N[C@@H](Cc2ccc(OCCN)cc2)C(=O)N[C@@H](Cc2ccc3ccccc3c2)C(=O)NC2(C(=O)N[C@@H](CCC(=O)O)C(=O)N[C@@H](CC(N)=O)C(=O)N[C@@H](CC(=O)NCc3ccccc3)C(N)=O)CCOCC2)C(C)(C)SSC1(C)C [Compound 110, Ac-[(D)Arg]-[Pen]-Q-T-W-Q-[Pen]-Phe[4-(2-aminoethoxy)]-[2-Nal]-[THP]-E-N-[(N-benzyl)Asn]-NH2] (Ac-[dR][Pen]QTWQ[Pen][AEF][2Nal][Thp]END(NHBn)-NH2; disulfide 2-7) |  | 700
4 | CC(=O)NCCCC[C@@H]1NC(=O)[C@H](Cc2c[nH]c3ccccc23)NC(=O)[C@H]([C@@H](C)O)NC(=O)[C@H](CCC(N)=O)NC(=O)[C@@H](NC(C)=O)C(C)(C)SSC(C)(C)[C@@H](C(=O)N[C@@H](Cc2ccc(OCCN)cc2)C(=O)N[C@@H](Cc2ccc3ccccc3c2)C(=O)N[C@@](C)(CCCCN)C(=O)N[C@@H](CCCCNC(C)=O)C(=O)N[C@@H](CC(N)=O)C(=O)N[C@@](C)(Cc2ccccc2)C(N)=O)NC1=O [Compound 82, Ac-[Pen]-Q-T-W-[Lys(Ac)]-[Pen]-Phe[4-(2-aminoethoxy)]-[2-Nal]-[a-MeLys]-[Lys(Ac)]-N-[a-MePhe]-NH2] (Ac-[Pen]QTWK(Ac)[Pen][AEF][2Nal][αMeK]K(Ac)N[αMeF]-NH2; disulfide 1-6) |  | 54
5 | CC(=O)NCCCC[C@@H]1NC(=O)[C@H](Cc2c[nH]c3ccccc23)NC(=O)[C@H]([C@@H](C)O)NC(=O)[C@H](CC(N)=O)NC(=O)[C@@H](NC(C)=O)CSSC[C@@](C)(C(=O)N[C@@H](Cc2ccc(OCCN)cc2)C(=O)N[C@@H](Cc2ccc3ccccc3c2)C(=O)N[C@@](C)(CCCCN)C(=O)N[C@@H](CCCCNC(C)=O)C(=O)N[C@@H](CC(N)=O)C(=O)N[C@@](C)(Cc2ccccc2)C(N)=O)NC1=O [Compound 122, Ac-[Cys]-N-T-W-[Lys(Ac)]-[aMeCys]-Phe[4-(2-aminoethoxy)]-[2-Nal]-[a-MeLys]-[Lys(Ac)]-N-[a-MePhe]-NH2] |  | 54
6 | COc1ccc(C[C@H](NC(=O)[C@@H]2CSCC[C@H](NC(=O)[C@@H](CCCNC(=N)N)NC(=O)Cn3cc(CCCF)nn3)C(=O)N[C@@H](CCC(N)=O)C(=O)N[C@@H]([C@@H](C)O)C(=O)N[C@@H](Cc3c[nH]c4ccccc34)C(=O)N[C@@H](CCC(N)=O)C(=O)N2)C(=O)N[C@@H](Cc2ccc3ccccc3c2)C(=O)NC2(C(=O)N[C@@H](CCC(=O)O)C(=O)N[C@@H](CC(N)=O)C(=O)NC3(C(N)=O)CCOCC3)CCOCC2)cc1 [Compound 25, FPrpTriazoleMe_Acid-[(D)Arg]-[Abu]-Q-T-W-Q-[Cys]-[Phe(4-OMe)]-[2-Nal]-[THP]-E-N-[THP]-NH2] |  | 21
7 | CC(=O)NCCCC[C@@H]1NC(=O)[C@H](Cc2c[nH]c3ccccc23)NC(=O)[C@H]([C@@H](C)O)NC(=O)[C@H](CC(N)=O)NC(=O)[C@@H](NC(C)=O)C(C)(C)SSC(C)(C)[C@@H](C(=O)N[C@@H](Cc2ccc(OCCN)cc2)C(=O)N[C@@H](Cc2ccc3ccccc3c2)C(=O)N[C@@](C)(CCCCN)C(=O)N[C@@H](CCCCNC(C)=O)C(=O)N[C@@H](CC(N)=O)C(=O)N[C@@](C)(Cc2ccccc2)C(N)=O)NC1=O [Compound 98, Ac-[Pen]-N-T-W-[Lys(Ac)]-[Pen]-Phe[4-(2-aminoethoxy)]-[2-Nal]-[a-MeLys]-[Lys(Ac)]-N-[a-MePhe]-NH2] |  | 15
8 | CCC(=O)NCCCC[C@H](NC(=O)C1(NC(=O)[C@H](Cc2ccc3ccccc3c2)NC(=O)[C@H](Cc2ccc(OCCN)cc2)NC(=O)[C@H]2NC(=O)[C@H](CCC(N)=O)NC(=O)[C@H](Cc3c[nH]c4ccccc34)NC(=O)[C@H]([C@@H](C)O)NC(=O)[C@H](CCC(N)=O)NC(=O)[C@@H](NC(=O)[C@@H](CCCNC(=N)N)NC(C)=O)C(C)(C)SSC2(C)C)CCOCC1)C(=O)N[C@@H](CC(N)=O)C(=O)NC1(C(N)=O)CCOCC1 [Compound 57, Ac-[(D)Arg]-[Pen]-Q-T-W-Q-[Pen]-Phe[4-(2-aminoethoxy)]-[2-Nal]-[THP]-[Lys(COEt)]-N-[THP]-NH2] |  | 18
9 | CC(=O)NCCCC[C@@H]1NC(=O)[C@H](Cc2c[nH]c3c(C)cccc23)NC(=O)[C@H]([C@@H](C)O)NC(=O)[C@H](CC(N)=O)NC(=O)[C@@H](NC(C)=O)C(C)(C)SSC(C)(C)[C@@H](C(=O)N[C@@H](Cc2ccc(OCCN)cc2)C(=O)N[C@@H](Cc2ccc3ccccc3c2)C(=O)N[C@@](C)(CCCCN)C(=O)N[C@@H](CCCCNC(C)=O)C(=O)N[C@@H](CC(N)=O)C(=O)NC2(C(=O)N[C@H](Cc3ccc(O)cc3)C(N)=O)CCOCC2)NC1=O [Compound 107, Ac-[Pen]-N-T-[W(7-Me)]-[Lys(Ac)]-[Pen]-Phe[4-(2-aminoethoxy)]-[2-Nal]-[a-MeLys]-[Lys(Ac)]-N-[THP]-[(D)Tyr]-NH2] |  | 11
10 | CC(=O)N[C@H](CCCNC(=N)N)C(=O)N[C@H]1CCSC[C@@H](C(=O)N[C@@H](Cc2ccc(OCCN)cc2)C(=O)N[C@@H](Cc2ccc3ccccc3c2)C(=O)NC2(C(=O)N[C@@](C)(CCC(=O)O)C(=O)N[C@@H](CC(N)=O)C(=O)N[C@@H](Cc3c[nH]c4ccc(F)cc34)C(N)=O)CCOCC2)NC(=O)[C@H](CCC(N)=O)NC(=O)[C@H](Cc2c[nH]c3ccccc23)NC(=O)[C@H]([C@@H](C)O)NC(=O)[C@H](CCC(N)=O)NC1=O [Compound 81, Ac-[(D)Arg]-[Abu]-Q-T-W-Q-[Cys]-Phe[4-(2-aminoethoxy)]-[2-Nal]-[THP]-[aMeGlu]-N-[W(5-F)]-NH2] |  | 30
11 | CC(=O)Nc1ccc(C[C@@H]2NC(=O)[C@H](Cc3c[nH]c4c(C)cccc34)NC(=O)[C@H]([C@@H](C)O)NC(=O)[C@H](CC(N)=O)NC(=O)[C@@H](NC(=O)[C@@H](CCCNC(=N)N)NC(C)=O)C(C)(C)SSC(C)(C)[C@@H](C(=O)N[C@@H](Cc3ccc(OCCN)cc3)C(=O)N[C@@H](Cc3ccc4ccccc4c3)C(=O)NC3(C(=O)N[C@@H](CCC(=O)O)C(=O)N[C@@H](CC(N)=O)C(=O)NC4(C(N)=O)CCOCC4)CC3)NC2=O)cc1 [Compound 306, MeCO-r-Pen-N-T-7MeW-Paf(Ac)-Pen-AEF-2Nal-Acpx-E-N-THP---CONH2] (Ac-[dR][Pen]NT[Trp(7-Me)][Phe(4-NH2)](Ac)[Pen][AEF][2Nal][Ac3c]EN[Thp]-NH2; disulfide 2-7) |  | 9.6
12 | CC(=O)NCCCC[C@@H]1NC(=O)[C@H](Cc2c[nH]c3ccccc23)NC(=O)[C@H]([C@@H](C)O)NC(=O)[C@H](CC(N)=O)NC(=O)[C@@H](NC(=O)[C@@H](CCCNC(=N)N)NC(C)=O)C(C)(C)SSC(C)(C)[C@@H](C(=O)N[C@@H](Cc2ccc(OCCN)cc2)C(=O)N[C@@H](Cc2ccc3ccccc3c2)C(=O)NC2(C(=O)N[C@@H](CCC(=O)O)C(=O)N[C@@H](CC(N)=O)C(=O)N[C@@](C)(Cc3ccccc3)C(N)=O)CCOCC2)NC1=O [Compound 106, Ac-[(D)Arg]-[Pen]-N-T-W-[Lys(Ac)]-[Pen]-Phe[4-(2-aminoethoxy)]-[2-Nal]-[THP]-E-N-[a-MePhe]-NH2] (Ac-[dR][Pen]NTWK(Ac)[Pen][AEF][2Nal][Thp]EN[αMeF]-NH2; disulfide 2-7) |  | 13
13 | CC(=O)N[C@H](CCCNC(=N)N)C(=O)N[C@H]1CCSC[C@@H](C(=O)N[C@@H](Cc2ccc(OCCN)cc2)C(=O)N[C@@H](Cc2ccc3ccccc3c2)C(=O)NC2(C(=O)NC(C)(C)C(=O)N[C@@H](CC(N)=O)C(=O)N[C@@H](Cc3ccccc3)C(N)=O)CCOCC2)NC(=O)[C@H](CCC(N)=O)NC(=O)[C@H](Cc2c[nH]c3ccccc23)NC(=O)[C@H]([C@@H](C)O)NC(=O)[C@H](CCC(N)=O)NC1=O [Compound 49, Ac-[(D)Arg]-[Abu]-Q-T-W-Q-[Cys]-Phe[4-(2-aminoethoxy)]-[2-Nal]-[THP]-[Aib]-N-F-NH2] (Ac-[dR][Abu(4-yl)]QTWQC[AEF][2Nal][Thp][Aib]NF-NH2; thioether 2-7) |  | 18
14 | CC(=O)NCCCC[C@@H]1NC(=O)[C@H](Cc2c[nH]c3ccccc23)NC(=O)[C@H]([C@@H](C)O)NC(=O)[C@H](CC(N)=O)NC(=O)[C@@H](NC(=O)[C@@H](CCCNC(=N)N)NC(C)=O)C(C)(C)SSC(C)(C)[C@@H](C(=O)N[C@@H](Cc2ccc(OCCN)cc2)C(=O)N[C@@H](Cc2ccc3ccccc3c2)C(=O)NC2(C(=O)N[C@@H](CCC(=O)O)C(=O)N[C@@H](CC(N)=O)C(=O)NC3(C(N)=O)CCOCC3)CCCC2)NC1=O [Compound 88, Ac-[(D)Arg]-[Pen]-N-T-W-[Lys(Ac)]-[Pen]-Phe[4-(2-aminoethoxy)]-[2-Nal]-[Acvc]-E-N-[THP]-NH2] (Ac-[dR][Pen]NTWK(Ac)[Pen][AEF][2Nal][Ac5c]EN[Thp]-NH2; disulfide 2-7) |  | 3.7
